Assay results published in patent US20100267561A1, “HERBICIDAL PYRIDAZINONE DERIVATIVES” (priority 2007, published 2010).

Key:
Assay in all cases: Test B pre-/postemergence plant response
Type in all cases: in vivo
[1] = test system: Russian thistle (Salsola iberica); conditions: Preemergence; for Russian Thistle plant response rating: scale 0 to 100
Summary of the method: (§1)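 Visual scoring from 0 (no effect) to 100 (complete control) against untreated controls was done 13 to 15 days after greenhouse treatment. Chemicals were formulated in a surfactant-containing non-phytotoxic solvent and applied to soil preemergence or to 1- to 4-leaf (2-18 cm) plants postemergence.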

[2] = test system: bermudagrass (Cynodon dactylon); conditions: for Bermudagrass plant response rating: 8 g ai/ha
Summary of the method: as §1

[3] = test system: cocklebur (Xanthium strumarium); conditions: for Cocklebur plant response rating: 8 g ai/ha
Summary of the method: as §1

corn (Zea mays) = test system: corn (Zea mays)
Summary of the method: as §1

[4] = test system: giant foxtail (Setaria faberii)
Summary of the method: as §1

[5] = test system: goosegrass (Eleusine indica)
Summary of the method: as §1

[6] = test system: green foxtail (Setaria viridis)
Summary of the method: as §1

kochia (Kochia scoparia) = conditions: for Kochia plant response rating: postemergence, 0-100 scale; for Plant response rating, Kochia: Postemergence
Summary of the method: as §1

[7] = test system: lambsquarters (Chenopodium album); conditions: for Lambsquarters plant response rating: postemergence, 0-100 scale; for Plant response rating, Lambsquarters: Postemergence
Summary of the method: as §1

soybean (Glycine max) = conditions: for Soybean plant response rating: postemergence, 0-100 scale; for Plant response rating, Soybean: Postemergence
Summary of the method: as §1

[8] = test system: velvetleaf (Abutilon theophrasti)
Summary of the method: as §1

[9] = test system: wheat (Triticum aestivum)
Summary of the method: as §1

[10] = test system: woolly cupgrass (Eriochloa villosa)
Summary of the method: as §1

[11] = test system: yellow nutsedge (Cyperus esculentus)
Summary of the method: as §1

[12] = 31 g ai/ha, scale 0 to 100 (0 no effect, 100 complete control)
[13] = 62 g ai/ha, 0 to 100 scale, 0 no effect, 100 complete control
[14] = Postemergence, 16 g ai/ha, scale 0 to 100
[15] = Postemergence, 31 g ai/ha, scale 0 to 100
[16] = Postemergence, 62 g ai/ha, scale 0 to 100, 0 no effect, 100 complete control
[17] = Preemergence, scale 0 to 100 (0 no effect, 100 complete control)
[18] = Preemergence, 16 g ai/ha, scale 0 to 100 (0 no effect, 100 complete control)
[19] = Preemergence, 31 g ai/ha, scale 0 to 100 (0 no effect, 100 complete control)
[20] = Preemergence, 62 g ai/ha, 0 to 100 scale, 0 no effect, 100 complete control
[21] = 8 g ai/ha, postemergence, 0-100 scale
[22] = Preemergence, 8 g ai/ha, scale 0 to 100
[23] = Preemergence, 16 g ai/ha, scale 0 to 100
[24] = 16 g ai/ha, postemergence, 0-100 scale
[25] = 62 g ai/ha, scale 0 to 100, 0 no effect, 100 complete control

CCc1cc(-c2ccc(C(F)(F)F)cc2)nn1-c1c(O)cnn(CC)c1=O [Compound 67]
90: Plant response rating, Corn (corn (Zea mays); [14]) | Plant response rating, Goosegrass [5, 16] | Cupgrass, Woolly plant response rating [10, 21]
70: Goosegrass plant response rating [5, 24] | Plant response rating, Foxtail, Green [6, 14] | Wheat plant response rating [9, 23]
0: Plant response rating, Russian Thistle [1, 12] | Plant response rating, Russian Thistle [1, 13] | Russian Thistle plant response rating ([1]; 8 g ai/ha) | Russian Thistle plant response rating ([1]; 16 g ai/ha) | Bermudagrass plant response rating ([2]; postemergence, 0-100 scale) | Plant response rating, Bermudagrass [2, 14] | Bermudagrass plant response rating [2, 17] | Plant response rating, Bermudagrass [2, 18] | Plant response rating, Bermudagrass [2, 19] | Plant response rating, Bermudagrass [2, 20] | Cocklebur plant response rating ([3]; postemergence, 0-100 scale) | Plant response rating, Cocklebur [3, 14] | Plant response rating, Cocklebur [3, 15] | Plant response rating, Cocklebur [3, 16] | Plant response rating, Cocklebur [3, 18] | Plant response rating, Cocklebur [3, 19] | Plant response rating, Cocklebur [3, 20] | Cocklebur plant response rating ([3]; Preemergence, scale 0 to 100) | Plant response rating, Foxtail, Giant [4, 19] | Plant response rating, Foxtail, Giant [4, 20] | Foxtail, Giant plant response rating [4, 22] | Foxtail, Giant plant response rating [4, 23] | Plant response rating, Goosegrass [5, 19] | Goosegrass plant response rating [5, 22] | Goosegrass plant response rating [5, 23] | Kochia plant response rating (kochia (Kochia scoparia); 8 g ai/ha) | Kochia plant response rating (kochia (Kochia scoparia); 16 g ai/ha) | Plant response rating, Kochia (kochia (Kochia scoparia); 31 g ai/ha, scale 0 to 100) | Plant response rating, Kochia (kochia (Kochia scoparia); [25]) | Lambsquarters plant response rating ([7]; 8 g ai/ha) | Lambsquarters plant response rating ([7]; 16 g ai/ha) | Plant response rating, Lambsquarters ([7]; 31 g ai/ha, scale 0 to 100) | Plant response rating, Lambsquarters [7, 25] | Soybean plant response rating (soybean (Glycine max); 8 g ai/ha) | Soybean plant response rating (soybean (Glycine max); 16 g ai/ha) | Plant response rating, Soybean (soybean (Glycine max); 31 g ai/ha, scale 0 to 100) | Velvetleaf plant response rating [8, 21] | Velvetleaf plant response rating [8, 24] | Plant response rating, Velvetleaf [8, 15] | Plant response rating, Velvetleaf [8, 16] | Plant response rating, Velvetleaf [8, 19] | Plant response rating, Velvetleaf [8, 20] | Velvetleaf plant response rating [8, 22] | Velvetleaf plant response rating [8, 23] | Plant response rating, Cupgrass, Woolly [10, 19] | Plant response rating, Cupgrass, Woolly [10, 20] | Cupgrass, Woolly plant response rating [10, 22] | Cupgrass, Woolly plant response rating [10, 23] | Nutsedge, Yellow plant response rating [11, 21] | Nutsedge, Yellow plant response rating [11, 24] | Plant response rating, Nutsedge, Yellow [11, 15] | Plant response rating, Nutsedge, Yellow [11, 16] | Plant response rating, Nutsedge, Yellow [11, 19] | Plant response rating, Nutsedge, Yellow [11, 20] | Nutsedge, Yellow plant response rating [11, 22] | Nutsedge, Yellow plant response rating [11, 23]
85: Foxtail, Giant plant response rating [4, 21] | Plant response rating, Goosegrass [5, 15]
95: Plant response rating, Foxtail, Giant [4, 14] | Wheat plant response rating [9, 21]
60: Plant response rating, Bermudagrass [2, 15] | Corn plant response rating (corn (Zea mays); [22]) | Plant response rating, Goosegrass [5, 20]
75: Plant response rating, Bermudagrass [2, 16] | Corn plant response rating (corn (Zea mays); [21])
100: Plant response rating, Corn (corn (Zea mays); [15]) | Plant response rating, Corn (corn (Zea mays); [16]) | Plant response rating, Corn (corn (Zea mays); [19]) | Plant response rating, Corn (corn (Zea mays); [20]) | Plant response rating, Foxtail, Giant [4, 15] | Plant response rating, Foxtail, Giant [4, 16] | Plant response rating, Foxtail, Green [6, 16] | Plant response rating, Foxtail, Green [6, 19] | Plant response rating, Foxtail, Green [6, 20] | Foxtail, Green plant response rating [6, 22] | Foxtail, Green plant response rating [6, 23] | Wheat plant response rating [9, 24] | Plant response rating, Wheat [9, 15] | Plant response rating, Wheat [9, 16] | Plant response rating, Wheat [9, 19] | Plant response rating, Wheat [9, 20] | Plant response rating, Cupgrass, Woolly [10, 14] | Plant response rating, Cupgrass, Woolly [10, 15] | Plant response rating, Cupgrass, Woolly [10, 16]
98: Corn plant response rating (corn (Zea mays); [23]) | Plant response rating, Foxtail, Green [6, 15]
15: Plant response rating, Soybean (soybean (Glycine max); [25])
65: Goosegrass plant response rating [5, 21] | Foxtail, Green plant response rating [6, 21]

Cc1cc(-c2ccc(Cl)cc2)nn1-c1c(OC(=S)N(C)C)cnn(C)c1=O [Compound 69]
95: Plant response rating, Bermudagrass [2, 15] | Plant response rating, Foxtail, Green [6, 16] | Plant response rating, Kochia (kochia (Kochia scoparia); 31 g ai/ha, scale 0 to 100) | Plant response rating, Cupgrass, Woolly [10, 15]
65: Plant response rating, Bermudagrass [2, 14]
35: Wheat plant response rating [9, 24]
80: Plant response rating, Foxtail, Green [6, 14] | Plant response rating, Wheat [9, 16]
98: Plant response rating, Bermudagrass [2, 16] | Plant response rating, Kochia (kochia (Kochia scoparia); [25])
90: Plant response rating, Goosegrass [5, 16] | Plant response rating, Foxtail, Green [6, 15] | Plant response rating, Cupgrass, Woolly [10, 14]
70: Goosegrass plant response rating [5, 24]
20: Bermudagrass plant response rating ([2]; postemergence, 0-100 scale) | Plant response rating, Corn (corn (Zea mays); [16]) | Plant response rating, Soybean (soybean (Glycine max); [25]) | Cupgrass, Woolly plant response rating [10, 21]
85: Plant response rating, Foxtail, Giant [4, 14] | Plant response rating, Cupgrass, Woolly [10, 20]
100: Plant response rating, Foxtail, Giant [4, 15] | Plant response rating, Foxtail, Giant [4, 16] | Plant response rating, Foxtail, Green [6, 20] | Plant response rating, Cupgrass, Woolly [10, 16]
60: Foxtail, Giant plant response rating [4, 21] | Goosegrass plant response rating [5, 21] | Foxtail, Green plant response rating [6, 21]
0: Plant response rating, Russian Thistle [1, 12] | Plant response rating, Russian Thistle [1, 13] | Russian Thistle plant response rating ([1]; 8 g ai/ha) | Russian Thistle plant response rating ([1]; 16 g ai/ha) | Bermudagrass plant response rating [2, 17] | Plant response rating, Bermudagrass [2, 18] | Plant response rating, Bermudagrass [2, 19] | Plant response rating, Bermudagrass [2, 20] | Cocklebur plant response rating ([3]; postemergence, 0-100 scale) | Plant response rating, Cocklebur [3, 14] | Plant response rating, Cocklebur [3, 15] | Plant response rating, Cocklebur [3, 16] | Plant response rating, Cocklebur [3, 18] | Plant response rating, Cocklebur [3, 19] | Plant response rating, Cocklebur [3, 20] | Cocklebur plant response rating ([3]; Preemergence, scale 0 to 100) | Corn plant response rating (corn (Zea mays); [21]) | Plant response rating, Corn (corn (Zea mays); [14]) | Plant response rating, Corn (corn (Zea mays); [15]) | Plant response rating, Corn (corn (Zea mays); [19]) | Plant response rating, Corn (corn (Zea mays); [20]) | Corn plant response rating (corn (Zea mays); [22]) | Corn plant response rating (corn (Zea mays); [23]) | Plant response rating, Foxtail, Giant [4, 19] | Plant response rating, Foxtail, Giant [4, 20] | Foxtail, Giant plant response rating [4, 22] | Foxtail, Giant plant response rating [4, 23] | Plant response rating, Goosegrass [5, 19] | Plant response rating, Goosegrass [5, 20] | Goosegrass plant response rating [5, 22] | Goosegrass plant response rating [5, 23] | Foxtail, Green plant response rating [6, 22] | Foxtail, Green plant response rating [6, 23] | Kochia plant response rating (kochia (Kochia scoparia); 8 g ai/ha) | Kochia plant response rating (kochia (Kochia scoparia); 16 g ai/ha) | Lambsquarters plant response rating ([7]; 8 g ai/ha) | Lambsquarters plant response rating ([7]; 16 g ai/ha) | Plant response rating, Lambsquarters ([7]; 31 g ai/ha, scale 0 to 100) | Plant response rating, Lambsquarters [7, 25] | Soybean plant response rating (soybean (Glycine max); 8 g ai/ha) | Soybean plant response rating (soybean (Glycine max); 16 g ai/ha) | Plant response rating, Soybean (soybean (Glycine max); 31 g ai/ha, scale 0 to 100) | Velvetleaf plant response rating [8, 21] | Velvetleaf plant response rating [8, 24] | Plant response rating, Velvetleaf [8, 15] | Plant response rating, Velvetleaf [8, 16] | Plant response rating, Velvetleaf [8, 19] | Plant response rating, Velvetleaf [8, 20] | Velvetleaf plant response rating [8, 22] | Velvetleaf plant response rating [8, 23] | Wheat plant response rating [9, 21] | Plant response rating, Wheat [9, 19] | Plant response rating, Wheat [9, 20] | Wheat plant response rating [9, 23] | Plant response rating, Cupgrass, Woolly [10, 19] | Cupgrass, Woolly plant response rating [10, 22] | Cupgrass, Woolly plant response rating [10, 23] | Nutsedge, Yellow plant response rating [11, 21] | Nutsedge, Yellow plant response rating [11, 24] | Plant response rating, Nutsedge, Yellow [11, 15] | Plant response rating, Nutsedge, Yellow [11, 16] | Plant response rating, Nutsedge, Yellow [11, 19] | Plant response rating, Nutsedge, Yellow [11, 20] | Nutsedge, Yellow plant response rating [11, 22] | Nutsedge, Yellow plant response rating [11, 23]
40: Plant response rating, Foxtail, Green [6, 19] | Plant response rating, Wheat [9, 15]
75: Plant response rating, Goosegrass [5, 15]
